Experimental data from patent US10576062B2, “Carbamoyloxymethyl triazole cyclohexyl acids as LPA antagonists” (Bristol-Myers Squibb Company, priority 2016, dated 2020).
Where two headings read alike, the source gives them in different places. Values belong to the compound of their own block, whether it stands above or below them.

Tests used:
CD-1 female mice = assay: LPA challenge with plasma histamine evaluation (acute in vivo histamine assay); design: species or system mouse; details: 3 mg/kg dose; for histamine (change of plasma histamine after LPA challenge): CD-1 mice, p.o. 2 hours prior to LPA challenge
Procedure: LPA Challenge with Plasma Histamine Evaluation.
Compound is dosed orally p.o. 2 hours to CD-1 female mice prior to the LPA challenge. The mice are then dosed via tail vein (IV) with 0.15 mL of LPA in 0.1% BSA/PBS ([…]). Exactly 2 minutes following the LPA challenge, the mice are euthanized by decapitation and the trunk blood is collected. These samples are collectively centrifuged and individual 75 μL samples are frozen at −20° C. until the time of the histamine assay.
The plasma histamine analysis was run by standard EIA (Enzyme Immunoassay) methods. Plasma samples were thawed and diluted 1:30 in 0.1% BSA in PBS. The EIA protocol for histamine analysis as outlined by the manufacturer was followed (Histamine EIA, Oxford Biomedical Research, EA #31).
The LPA used in the assay is formulated as follows: LPA (1-oleoyl-2-hydroxy-sn-glycero-3-phosphate (sodium salt), 857130P, Avanti Polar Lipids) is prepared in 0.1% BSA/PBS for total concentration of 2 μg/μL. 13 mg of LPA is weighed and 6.5 mL 0.1% BSA added, vortexed and sonicated for ˜1 hour until a clear solution is achieved.

human LPA1 = target: T1, human LPA1 (Homo sapiens, UniProt Q92633); assay: LPA1 functional antagonist assay (LPA-induced calcium flux); type: cell-based; details: read-out: hLPA1 IC50
T1 construct: expressed in transfected cells; host or cells: Chinese hamster ovary (CHO) cells
T1 sequence (Q92633 whole entry): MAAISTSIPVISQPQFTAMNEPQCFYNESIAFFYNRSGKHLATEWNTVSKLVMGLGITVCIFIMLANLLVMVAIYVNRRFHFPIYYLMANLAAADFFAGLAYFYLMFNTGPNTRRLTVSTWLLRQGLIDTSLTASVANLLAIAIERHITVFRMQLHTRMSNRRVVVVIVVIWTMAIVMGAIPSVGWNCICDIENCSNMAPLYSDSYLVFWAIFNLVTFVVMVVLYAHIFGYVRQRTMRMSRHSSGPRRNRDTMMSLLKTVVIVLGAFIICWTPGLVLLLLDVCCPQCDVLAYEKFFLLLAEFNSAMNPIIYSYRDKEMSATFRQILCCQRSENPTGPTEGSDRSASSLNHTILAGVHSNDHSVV
Outline: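 CHO cells overexpressing human LPA1, loaded with calcium dye 30 min at 37° C, were preincubated 20 min at room temperature with compound (0.08 nM–5 μM, 0.5% DMSO) in HBSS/20 mM HEPES/0.1% fatty acid-free BSA.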

nerve-injured mice = details: pretreatment; cited from earlier work
[1] = tested on: pancreatic cancer cell lines; details: cited from earlier work
UUO mice = UUO mice treated with the antagonist; cited from earlier work
[2] = tested on: mouse epithelial renal cell line, MCT; details: MCT cells, co-treatment with LPA; cited from earlier work
[3] = tested on: human foetal lung fibroblasts; details: cited from earlier work
[4] = CHO cells overexpressing human LPA1, inhibition of calcium flux induced by 10 nM LPA

Structure (SMILES): Cc1nc(-c2nnn(C)c2COC(=O)N(C)C2CCCC2)ccc1O[C@H]1CCC[C@H](C(=O)O)C1 [Example 1, (1S,3S)-3-((6-(5-(((cyclopentyl(methyl)carbamoyl)oxy)methyl)-1-methyl-1H-1,2,3-triazol-4-yl)-2-methylpyridin-3-yl)oxy)cyclohexane-1-carboxylic Acid]
histamine (change of plasma histamine after LPA challenge) (CD-1 female mice): −97%

Structure (SMILES): CN(C(=O)OCc1c(-c2ccc(O[C@H]3CCC[C@H](C(=O)O)C3)cc2)nnn1C)C1CCCC1 [Example 5, (1S,3S)-3-(4-(5-(((Cyclopentyl(methyl)carbamoyl)oxy)methyl)-1-methyl-1H-1,2,3-triazol-4-yl)phenoxy)cyclohexanecarboxylic acid]
histamine (change of plasma histamine after LPA challenge) (CD-1 female mice): −90%

IC50 (human LPA1): 24 nM
Structure (SMILES): C[C@H](C1CC1)N(C)C(=O)OCc1c(-c2ccc(O[C@H]3CCC[C@H](C(=O)O)C3)cc2)nnn1C [Example 51, (1S,3S)-3-(4-(5-(((((R)-1-cyclopropylethyl)(methyl)carbamoyl)oxy)methyl)-1-methyl-1H-1,2,3-triazol-4-yl)phenoxy)cyclohexane-1-carboxylic acid]
In vivo acute histamine assay: % histamine (CD-1 female mice): −73%

IC50 (human LPA1; [4]): 2 nM
Structure (SMILES): CN(Cc1ccccc1)C(=O)OCc1c(-c2ccc(O[C@H]3CCC[C@H](C(=O)O)C3)c(C#N)n2)nnn1C [Example 290, (1S,3S)-3-((6-(5-(((benzyl(methyl)carbamoyl)oxy)methyl)-1-methyl-1H-1,2,3-triazol-4-yl)-2-cyanopyridin-3-yl)oxy)cyclohexane-1-carboxylic acid]

IC50 (human LPA1; [4]): 15 nM
Structure (SMILES): CCCCN(C)C(=O)OCc1c(-c2ccc(O[C@H]3CCC[C@H](C(=O)O)C3)c(C#N)n2)nnn1C [Example 291, (1S,3S)-3-((6-(5-(((butyl(methyl)carbamoyl)oxy)methyl)-1-methyl-1H-1,2,3-triazol-4-yl)-2-cyanopyridin-3-yl)oxy)cyclohexane-1-carboxylic acid]

IC50 (human LPA1; [4]): 20 nM
Structure (SMILES): CN(CC1CCC1)C(=O)OCc1c(-c2ccc(O[C@H]3CCC[C@H](C(=O)O)C3)c(C#N)n2)nnn1C [Example 292, (1S,3S)-3-((2-cyano-6-(5-((((cyclobutylmethyl)(methyl)carbamoyl)oxy)methyl)-1-methyl-1H-1,2,3-triazol-4-yl)pyridin-3-yl)oxy)cyclohexane-1-carboxylic acid]

IC50 (human LPA1; [4]): 23 nM
Structure (SMILES): CN(C(=O)OCc1c(-c2ccc(O[C@H]3CCC[C@H](C(=O)O)C3)c(C#N)n2)nnn1C)C1CCC1 [Example 293, (1S,3S)-3-((2-cyano-6-(5-(((cyclobutyl(methyl)carbamoyl)oxy)methyl)-1-methyl-1H-1,2,3-triazol-4-yl)pyridin-3-yl)oxy)cyclohexane-1-carboxylic acid]

IC50 (human LPA1; [4]): 15 nM
Structure (SMILES): CN(C(=O)OCc1c(-c2ccc(O[C@H]3CCC[C@H](C(=O)O)C3)c(C#N)n2)nnn1C)C1CCCC1 [Example 294, (1S,3S)-3-((2-cyano-6-(5-(((cyclopentyl(methyl)carbamoyl)oxy)methyl)-1-methyl-1H-1,2,3-triazol-4-yl)pyridin-3-yl)oxy)cyclohexane-1-carboxylic acid]

Structure (SMILES): C[C@@H](N)[C@H]1CC[C@H](C(=O)Nc2ccncc2)CC1 [Example Y-27632]
allodynia and hyperalgesia (nerve-injured mice): completely abolished

Structure (SMILES): Cc1noc(-c2ccc(CSCCC(=O)O)cc2)c1NC(=O)OC(C)c1ccccc1Cl (stereo not drawn) [Ki16425]
LPA-induced and ascites-induced invasion activity ([1]; highly peritoneal metastatic pancreatic cancer cell line): blocked | in vitro migration in response to LPA and peritoneal fluid (ascites) from pancreatic cancer patients ([1]; pancreatic cancer cell lines): effectively blocked | development of renal fibrosis in UUO mice (UUO mice): closely resembled the profile of LPA1 (−/−) mice | LPA-induced increase in expression of CTGF [2]: almost completely suppressed | chemotaxis of human foetal lung fibroblasts induced by BAL from IPF patients [3]: blocked
